Columns and labels:
Botrytis cinerea [1] = assay: B-11. Botrytis cinerea in vitro cell test; format: cell-based; conditions: 144 h, 20 ppm of active ingredient, 6 days incubation, liquid culture, absorbance, read-out: efficacy (inhibition of fungal growth)
How it was run: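 B. cinerea spores were grown in liquid culture with compound (DMSO ≤1% final). Mycelium growth was measured spectrometrically after 6 days, with inhibition taken as absorbance relative to untreated control wells.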

Septoria tritici = assay: B-9. Septoria tritici in vitro cell test; format: cell-based; conditions: Zymoseptoria tritici, 168 h; 20 ppm of active ingredient; 7 days incubation; liquid culture, absorbance; read-out: efficacy (inhibition of fungal growth)
Experimental: B-9. Septoria tritici In Vitro Cell Test [table] Fungicides were solubilized in DMSO and the solution used to prepare the required range of concentrations. The final concentration of DMSO used in the assay was ≤1%. A spore suspension of S. tritici was prepared and diluted to the desired spore density. Fungicides were evaluated for their ability to inhibit spore germination and mycelium growth in liquid culture assay. The compounds were added in the desired concentration to the culture medium with spores. After 7 days incubation, fungi-toxicity of compounds was determined by spectrometric measurement of mycelium growth. Inhibition of fungal growth was determined by comparing the absorbance values in wells containing the fungicides with the absorbance in control wells without fungicides.

[2] = Measurement of Log P values by HPLC on reversed phase columns (EEC directive 79/831 Annex V.A8); format: physicochemical; conditions: reversed phase HPLC column, method [a]: LC-UV, acidic range, 0.1% formic acid in water and acetonitrile as eluent
How it was run: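 Log P derived from retention on reversed-phase columns (EEC directive 79/831 Annex V.A8), LC-UV, acetonitrile gradient 10% to 95% against water containing 0.1% formic acid, 0.001 M ammonium acetate, or 0.1% phosphoric acid; several values per method separated by "+".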

[3] = system: Colletotrichum lindemuthianum; assay: In vivo preventive test on Colletotrichum lindemuthianum (leaf spot on bean); conditions: 168 h, 500 ppm of active ingredient, preventive spray on bean, evaluated 7 days after inoculation, read-out: efficacy
How it was run: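 Young bean plants sprayed with compound in DMSO/acetone/Tween 80 diluted in water; solvent-only controls. Inoculated 24 h later with C. lindemuthianum spore suspension, then kept 24 h at 20 °C/100% RH and 6 days at 20 °C/90% RH.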

Sphaerotheca fuliginea = assay: In vivo preventive test on Sphaerotheca fuliginea (powdery mildew on cucurbits); conditions: Podosphaera fuliginea, 192 h; 500 ppm of active ingredient; preventive spray on gherkin; evaluated 8 days after inoculation; read-out: efficacy
How it was run: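 This is a preventive spray test on gherkin seedlings, with compound formulated in DMSO/acetone/Tween 80 in water and solvent-only controls. Spore inoculation followed one day after treatment. Incubation lasted 8 days at 20 °C, 70–80% RH.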

Pyrenophora teres [4] = assay: B-10. Pyrenophora teres in vitro cell test; format: cell-based; conditions: 144 h, 20 ppm of active ingredient, 6 days incubation, liquid culture, absorbance, read-out: efficacy (inhibition of fungal growth)
How it was run: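 Liquid-culture assay on a P. teres spore suspension with compounds added to the medium from DMSO solutions, final DMSO ≤1%. Mycelium growth read spectrometrically after 6 days. Inhibition calculated from absorbance against untreated control wells.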

[5] = system: Colletotrichum lindemuthianum; assay: B-8. Colletotrichum lindemuthianum in vitro cell test; format: cell-based; conditions: 144 h, 20 ppm of active ingredient, 6 days incubation, liquid culture, absorbance, read-out: efficacy (inhibition of fungal growth)
How it was run: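 Liquid-culture germination/growth test: compounds in ≤1% final DMSO were added to spore-containing medium. Fungal growth was quantified spectrophotometrically after 6 days of incubation and expressed as inhibition versus untreated controls.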

Pyrenophora teres [6] = assay: In vivo preventive test on Pyrenophora teres (net blotch on barley); conditions: 240 h, 500 ppm of active ingredient, preventive spray on barley, evaluated 10 days after inoculation, read-out: efficacy
How it was run: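 Net blotch spores were sprayed onto barley leaves one day after foliar treatment with water-diluted DMSO/acetone/Tween 80 formulations (solvent-only controls). Plants were kept at 20° C: first 48 hours at 100% relative humidity, then 8 days at 70-80%.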

Alternaria brassicae = assay: In vivo preventive test on Alternaria brassicae (leaf spot on radish or cabbage); conditions: 500 ppm of active ingredient, preventive spray on radish or cabbage, evaluated 3 to 4 days after inoculation, read-out: efficacy
How it was run: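 Protective spray on young radish or cabbage: actives in water diluted from DMSO/acetone/Tween 80, with solvent-only controls. Leaves were challenged after 24 h with a spore suspension, and plants were held at 100% RH, 20 °C for 3 to 4 days.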

Alternaria alternata = Alternaria alternata in vitro cell test; format: cell-based; conditions: 120 h, 20 ppm of active ingredient, liquid culture, 5 days incubation, spectrometric measurement of mycelium growth, read-out: efficacy (inhibition of fungal growth)
How it was run: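 Spectrometric readout of mycelial growth after 5-day incubation gauged compound effects on spore germination and growth of A. alternata in liquid medium. Compounds were delivered in DMSO at ≤1% final. Absorbance was compared with untreated controls to give inhibition.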

Botrytis cinerea [7] = assay: In vivo preventive test on Botrytis cinerea (grey mould); conditions: 500 ppm of active ingredient, preventive spray on gherkin or cabbage, evaluated 4 to 5 days after inoculation, read-out: efficacy
How it was run: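 Preventive spray on cabbage or gherkin seedlings, with compound formulated in DMSO/acetone/Tween 80 and water-diluted, preceded spore inoculation by 24 hours. Cabbage was held 4 to 5 days at 20° C., 100% relative humidity; gherkin 4 to 5 days at 17° C., 90% relative humidity.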

Row | chromatographic logP [2] | SMILES | inhibition at 20 ppm (Botrytis cinerea [1]) | inhibition at 20 ppm (Septoria tritici) | pest or weed control at 500 ppm [3] | pest or weed control at 500 ppm (Sphaerotheca fuliginea) | inhibition at 20 ppm (Pyrenophora teres [4]) | inhibition at 20 ppm [5] | pest or weed control at 500 ppm (Pyrenophora teres [6]) | pest or weed control at 500 ppm (Alternaria brassicae) | inhibition at 20 ppm (Alternaria alternata) | pest or weed control at 500 ppm (Botrytis cinerea [7])
1 | 4.17 | O=C(NCC(F)c1ccc(Cl)cc1Cl)c1c(Oc2cccc(C3CC3)c2F)nnc2c1CCCC2 (stereo not drawn) [I-184] | 90 to 100% | 90 to 100% | 90 to 100% | 90 to 100% | 90 to 100% | 90 to 100% | 90 to 100% | 90 to 100% | 90 to 100% | 
2 | 4.55 | O=C(NC[C@H](F)c1ccc(Cl)cc1Cl)c1c(Oc2cccc(C(F)(F)F)c2)nnc2ccccc12 (racemic) [I-219] | 90 to 100% | 80 to 89% | 90 to 100% | 90 to 100% | 70 to 79% |  | 90 to 100% | 90 to 100% | 80 to 89% | 90 to 100%
3 | 3.91 | Cc1ccc([C@@H](F)CNC(=O)c2c(Oc3cccc(C(F)(F)F)c3)nnc3c2OCC(C)(C)O3)c(C)c1 (racemic) [I-155] | 90 to 100% | 90 to 100% | 90 to 100% | 90 to 100% | 90 to 100% | 90 to 100% | 90 to 100% | 90 to 100% | 90 to 100% | 
4 | 4.11 | Cc1cc(Cl)ccc1C(F)(F)CNC(=O)c1c(Oc2cccc(C(F)(F)F)c2)nnc2c1CCC2 [I-164] | 90 to 100% | 90 to 100% | 90 to 100% | 90 to 100% | 90 to 100% | 90 to 100% | 90 to 100% | 90 to 100% | 90 to 100% | 
5 | 3.85 | Cc1cc(Cl)ccc1C(F)(F)CNC(=O)c1c(Oc2cccc(C(F)(F)F)c2)nnc2c1COCC2 [I-125] | 90 to 100% | 90 to 100% | 80 to 89% | 90 to 100% | 90 to 100% |  | 70 to 79% | 90 to 100% | 90 to 100% | 90 to 100%
6 | 4.23 | Cc1ccc(CCNC(=O)c2c(Oc3cccc(C(F)(F)F)c3)cnc3c2CCC3)c(C)c1 [I-157] | 90 to 100% | 90 to 100% | 90 to 100% | 90 to 100% | 90 to 100% | 90 to 100% | 90 to 100% | 90 to 100% | 90 to 100% | 
7 | 4.11 | Cc1cc(Br)ccc1C(F)(F)CNC(=O)c1c(Oc2cccc(Cl)c2F)nnc2c1CCC2 [I-154] | 90 to 100% | 90 to 100% | 90 to 100% | 90 to 100% | 90 to 100% | 90 to 100% | 90 to 100% | 90 to 100% | 90 to 100% | 
8 | 4.28 | Cc1cc(Br)ccc1C(F)(F)CNC(=O)c1c(Oc2cccc(C(F)(F)F)c2)nnc2c1CCCC2 [I-202] | 90 to 100% | 90 to 100% | 90 to 100% | 90 to 100% | 90 to 100% | 90 to 100% | 90 to 100% |  | 90 to 100% | 90 to 100%
9 | 4.4 | O=C(NCC(F)(F)c1ccc(Br)cc1Cl)c1c(Oc2cccc(Cl)c2F)nnc2c1CCCC2 [I-210] | 90 to 100% | 90 to 100% | 90 to 100% | 90 to 100% | 90 to 100% | 90 to 100% | 90 to 100% |  | 90 to 100% | 90 to 100%
10 | 4.69 | O=C(NCC(F)(F)c1ccc(Br)cc1Cl)c1c(Oc2cccc(C3CC3)c2F)nnc2c1CCCC2 [I-211] | 90 to 100% | 90 to 100% | 90 to 100% | 90 to 100% | 90 to 100% | 90 to 100% | 90 to 100% |  | 90 to 100% | 90 to 100%
11 | 4.05 | O=C(NCC(F)(F)c1ccc(Cl)cc1Cl)c1c(Oc2cccc(C(F)(F)F)c2)nnc2c1CCC2 [I-198] | 90 to 100% | 90 to 100% | 90 to 100% | 90 to 100% | 90 to 100% | 90 to 100% | 80 to 89% |  | 90 to 100% | 90 to 100%
12 | 4.28 | O=C(NCC(F)(F)c1ccc(Cl)cc1Cl)c1c(Oc2cccc(C3CC3)c2F)nnc2c1CCCC2 [I-196] | 90 to 100% | 90 to 100% | 90 to 100% | 90 to 100% | 90 to 100% | 90 to 100% | 90 to 100% |  | 90 to 100% | 90 to 100%
13 |  | Cc1cc(Br)ccc1C(F)(F)CNC(=O)c1c(Oc2cccc(C3CC3)c2F)nnc2c1CCCC2 [I-153] | 90 to 100% | 90 to 100% | 90 to 100% | 90 to 100% | 90 to 100% | 90 to 100% | 90 to 100% | 90 to 100% | 90 to 100% | 
14 | 4.23 | O=C(NCC(F)(F)c1ccc(Cl)cc1Cl)c1c(Oc2cccc(C(F)(F)F)c2)nnc2c1CCCC2 [I-189] | 90 to 100% | 90 to 100% | 90 to 100% | 90 to 100% | 90 to 100% | 90 to 100% | 80 to 89% |  | 90 to 100% | 90 to 100%
15 | 4 | O=C(NCC(F)(F)c1ccc(Cl)cc1Cl)c1c(Oc2cccc(Cl)c2)nnc2c1CCCC2 [I-192] | 90 to 100% | 90 to 100% | 90 to 100% | 90 to 100% | 90 to 100% | 90 to 100% | 90 to 100% |  | 90 to 100% | 90 to 100%
16 | 3.73 | O=C(NCC(F)(F)c1ccc(Cl)cc1Cl)c1c(Oc2cccc(C(F)F)c2)nnc2c1CCCC2 [I-191] | 90 to 100% | 90 to 100% | 90 to 100% | 90 to 100% | 90 to 100% | 90 to 100% | 90 to 100% |  | 90 to 100% | 90 to 100%

Reference: patent US20230192617A1, “AZABICYCLIC(THIO)AMIDES AS FUNGICIDAL COMPOUNDS” (Bayer CropScience Aktiengesellschaft, priority 2020, published 2023)
